The test system of the assay is Mus musculus. Nature of the assay: Antiinflammatory activity in iv dosed ICR mouse model of CLP-induced sepsis assessed as increase in survival rate. The class given is functional.
With `CCCNc1nc2nc3c(c(-c4ccc(OC)cc4)c2s1)CCCC3`, the Survival amounted to 40%.
`CCCNc1nc2nc3c(c(-c4ccccc4)c2s1)CCCCC3`: the Survival stood at 40%.
To `O=[N+]([O-])c1ccc(-c2c3c(nc4nc(N5CCCC5)sc24)CCCC3)cc1` belongs 40%; to `CCCNc1nc2nc3c(c(-c4ccc(OC)cc4)c2s1)CCCCC3`, 40%.
